Laboratory results reported in ChEMBL document CHEMBL3120096 (J Med Chem, 2014).
pIC50, pKi: −log10 of the molar value. ≈ marks a conversion by molar mass, not a printed value.

Assays:
[1] = Oral bioavailability in cynomolgus monkey at 1 to 20 mg/kg; assay type: ADME, organism-based, Macaca fascicularis; details: in vivo
Homo sapiens = species on record: Homo sapiens; experiment: Selectivity ratio of Ki for JAK2 (unknown origin) to Ki for LRRK2 (unknown origin)
Liver microsome = experiment: Drug metabolism in human liver microsomes assessed as glucuronidated parent compound level after 3 hrs; assay type: ADME
[2] = Oral bioavailability in cynomolgus monkey at 1 mg/kg; assay type: ADME, organism-based, Macaca fascicularis; details: in vivo
Cynomolgus monkey = experiment: Unbound clearance in cynomolgus monkey at 1 mg/kg, po and 0.5 mg/kg, iv; assay type: ADME, organism-based, Macaca fascicularis; details: in vivo
[3] = Half life in cynomolgus monkey at 0.5 mg/kg, iv; assay type: ADME, organism-based, Macaca fascicularis; parameters: dose 0.5 mg/kg, route intravenous; details: in vivo
[4] = Clearance in cynomolgus monkey at 1 mg/kg, po and 0.5 mg/kg, iv; assay type: ADME, organism-based, Macaca fascicularis; details: in vivo
[5] = Plasma protein binding in cynomolgus monkey at 5 uM after 4 hrs by equilibrium dialysis technique; assay type: ADME, cell-free, Macaca fascicularis; details: read-out: PPB (converted)
Mus musculus = experiment: In vivo inhibition of human LRRK2 G2019S Parkinson's disease mutant expressed in BAC mouse assessed as inhibition of autophosphorylation at Ser1292 in brain at 10 to 50 mg/kg, ip after 1 to 6 hrs; assay type: functional, organism-based; parameters: dose 10-50 mg/kg, route intraperitoneal
Cytochrome P450 2B6 = target: T1, Cytochrome P450 2B6 (Homo sapiens, UniProt P20813); experiment: Induction of CYP2B6 in human hepatocytes; assay type: ADME, cell-based, Hepatocyte
T1 sequence (P20813 whole entry): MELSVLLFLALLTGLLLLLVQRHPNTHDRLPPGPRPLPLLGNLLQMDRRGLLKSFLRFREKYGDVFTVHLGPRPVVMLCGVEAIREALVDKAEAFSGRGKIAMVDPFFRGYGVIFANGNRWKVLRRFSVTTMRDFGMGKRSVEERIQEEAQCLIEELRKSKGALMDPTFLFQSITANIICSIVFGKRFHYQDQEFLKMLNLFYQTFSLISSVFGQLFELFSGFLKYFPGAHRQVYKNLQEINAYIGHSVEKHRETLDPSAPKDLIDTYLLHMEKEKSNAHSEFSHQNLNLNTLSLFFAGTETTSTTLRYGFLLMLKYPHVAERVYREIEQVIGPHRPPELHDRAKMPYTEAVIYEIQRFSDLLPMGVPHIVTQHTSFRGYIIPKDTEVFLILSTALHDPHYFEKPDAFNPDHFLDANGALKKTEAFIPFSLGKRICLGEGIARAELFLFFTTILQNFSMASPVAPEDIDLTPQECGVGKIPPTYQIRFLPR

Cytochrome P450 1A2 [6] = target: T2, Cytochrome P450 1A2 (Homo sapiens, UniProt P05177); experiment: Induction of CYP1A2 in human hepatocytes; assay type: ADME, cell-based, Hepatocyte
T2 sequence (P05177 whole entry): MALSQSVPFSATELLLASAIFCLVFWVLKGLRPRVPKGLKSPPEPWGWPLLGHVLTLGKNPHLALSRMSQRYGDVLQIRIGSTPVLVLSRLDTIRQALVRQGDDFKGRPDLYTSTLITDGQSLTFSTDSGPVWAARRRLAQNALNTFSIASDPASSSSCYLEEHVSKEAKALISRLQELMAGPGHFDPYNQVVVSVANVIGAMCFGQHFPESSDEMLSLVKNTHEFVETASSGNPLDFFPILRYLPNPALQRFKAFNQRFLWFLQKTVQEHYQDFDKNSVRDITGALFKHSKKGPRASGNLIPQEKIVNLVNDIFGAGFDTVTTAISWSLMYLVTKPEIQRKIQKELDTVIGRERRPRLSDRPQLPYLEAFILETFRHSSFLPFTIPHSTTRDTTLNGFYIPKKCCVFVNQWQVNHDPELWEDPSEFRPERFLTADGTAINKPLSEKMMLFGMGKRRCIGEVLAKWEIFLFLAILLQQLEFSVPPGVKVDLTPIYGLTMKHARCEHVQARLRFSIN

Cytochrome P450 3A4 = Cytochrome P450 3A4 (Homo sapiens, UniProt P08684); experiment: Induction of CYP3A4 in human hepatocytes; assay type: ADME, cell-based, Hepatocyte
Cytochrome P450 1A2 [7] = target: T2, Cytochrome P450 1A2; experiment: Reversible inhibition of CYP1A2 in human liver microsomes using phenacetin as substrate by mass spectrophotometric analysis; assay type: ADME
[8] = Ratio of unbound drug level in brain to plasma in Sprague-Dawley rat; assay type: ADME, organism-based
[9] = Oral bioavailability in Sprague-Dawley rat at 50 mg/kg; assay type: ADME, organism-based; details: in vivo
[10] = target: Ribosomal protein S6 kinase alpha-2 (Homo sapiens) (UniProt Q15349); experiment: Inhibition of RSK3 (unknown origin) at 0.1 uM relative to control
[11] = target: Ribosomal protein S6 kinase alpha-3 (Homo sapiens) (UniProt P51812); experiment: Inhibition of RSK2 (unknown origin) at 0.1 uM relative to control
[12] = target: Ribosomal protein S6 kinase alpha-6 (Homo sapiens) (UniProt Q9UK32); experiment: Inhibition of RSK4 (unknown origin) at 0.1 uM relative to control
[13] = target: Aurora kinase B (Homo sapiens) (UniProt Q96GD4); experiment: Inhibition of aurora-B (unknown origin) at 0.1 uM relative to control
Hepatocyte = experiment: Drug metabolism in human hepatocytes assessed as glucuronidated parent compound level after 3 hrs; assay type: ADME, cell-based
[14] = Clearance in Sprague-Dawley rat at 1 mg/kg, po and 0.5 mg/kg, iv; assay type: ADME, organism-based; details: in vivo
Rattus norvegicus = experiment: Unbound clearance in Sprague-Dawley rat at 1 mg/kg, po and 0.5 mg/kg, iv; assay type: ADME, organism-based; details: in vivo
[15] = Clearance in rat hepatocytes at 1 uM by LC-MS/MS analysis; assay type: ADME, cell-based, Hepatocyte
[16] = Clearance in human hepatocytes at 1 uM by LC-MS/MS analysis; assay type: ADME, cell-based, Hepatocyte
[17] = target: T3, Dual specificity protein kinase TTK (Homo sapiens, UniProt P33981); experiment: Inhibition of TTK (unknown origin)
T3 sequence (P33981 whole entry): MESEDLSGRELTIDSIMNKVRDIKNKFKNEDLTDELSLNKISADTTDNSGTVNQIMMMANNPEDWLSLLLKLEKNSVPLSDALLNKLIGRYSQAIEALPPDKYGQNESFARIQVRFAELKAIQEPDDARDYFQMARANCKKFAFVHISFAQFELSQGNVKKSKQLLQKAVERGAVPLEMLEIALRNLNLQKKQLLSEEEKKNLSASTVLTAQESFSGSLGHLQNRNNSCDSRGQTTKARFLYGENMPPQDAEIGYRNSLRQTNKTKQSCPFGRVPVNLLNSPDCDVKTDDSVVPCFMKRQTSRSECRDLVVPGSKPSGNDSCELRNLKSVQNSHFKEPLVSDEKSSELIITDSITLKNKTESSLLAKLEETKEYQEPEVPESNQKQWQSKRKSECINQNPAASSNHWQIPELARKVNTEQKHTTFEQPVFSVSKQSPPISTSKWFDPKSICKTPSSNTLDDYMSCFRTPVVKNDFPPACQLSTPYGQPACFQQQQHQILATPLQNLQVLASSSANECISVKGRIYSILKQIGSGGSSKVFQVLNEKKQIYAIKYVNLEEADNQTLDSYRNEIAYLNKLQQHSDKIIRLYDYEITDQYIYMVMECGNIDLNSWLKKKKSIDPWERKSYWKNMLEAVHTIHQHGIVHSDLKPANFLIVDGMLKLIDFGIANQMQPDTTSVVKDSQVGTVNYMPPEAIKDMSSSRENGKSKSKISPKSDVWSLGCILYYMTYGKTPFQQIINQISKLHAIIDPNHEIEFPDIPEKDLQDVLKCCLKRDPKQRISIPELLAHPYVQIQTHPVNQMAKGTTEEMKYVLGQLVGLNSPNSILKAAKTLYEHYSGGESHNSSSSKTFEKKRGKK

[18] = target: T4, Leucine-rich repeat serine/threonine-protein kinase 2 (Homo sapiens, UniProt Q5S007); experiment: Inhibition of LRRK2 (unknown origin) phosphorylation by cell-based assay
[19] = target: T4, Leucine-rich repeat serine/threonine-protein kinase 2; experiment: Inhibition of LRRK2 (unknown origin)
[20] = Thermodynamic solubility of the crystalline form of compound at pH 7.4; assay type: physicochemical; details: read-out: Therm_solubility

T4 sequence (Q5S007 whole entry): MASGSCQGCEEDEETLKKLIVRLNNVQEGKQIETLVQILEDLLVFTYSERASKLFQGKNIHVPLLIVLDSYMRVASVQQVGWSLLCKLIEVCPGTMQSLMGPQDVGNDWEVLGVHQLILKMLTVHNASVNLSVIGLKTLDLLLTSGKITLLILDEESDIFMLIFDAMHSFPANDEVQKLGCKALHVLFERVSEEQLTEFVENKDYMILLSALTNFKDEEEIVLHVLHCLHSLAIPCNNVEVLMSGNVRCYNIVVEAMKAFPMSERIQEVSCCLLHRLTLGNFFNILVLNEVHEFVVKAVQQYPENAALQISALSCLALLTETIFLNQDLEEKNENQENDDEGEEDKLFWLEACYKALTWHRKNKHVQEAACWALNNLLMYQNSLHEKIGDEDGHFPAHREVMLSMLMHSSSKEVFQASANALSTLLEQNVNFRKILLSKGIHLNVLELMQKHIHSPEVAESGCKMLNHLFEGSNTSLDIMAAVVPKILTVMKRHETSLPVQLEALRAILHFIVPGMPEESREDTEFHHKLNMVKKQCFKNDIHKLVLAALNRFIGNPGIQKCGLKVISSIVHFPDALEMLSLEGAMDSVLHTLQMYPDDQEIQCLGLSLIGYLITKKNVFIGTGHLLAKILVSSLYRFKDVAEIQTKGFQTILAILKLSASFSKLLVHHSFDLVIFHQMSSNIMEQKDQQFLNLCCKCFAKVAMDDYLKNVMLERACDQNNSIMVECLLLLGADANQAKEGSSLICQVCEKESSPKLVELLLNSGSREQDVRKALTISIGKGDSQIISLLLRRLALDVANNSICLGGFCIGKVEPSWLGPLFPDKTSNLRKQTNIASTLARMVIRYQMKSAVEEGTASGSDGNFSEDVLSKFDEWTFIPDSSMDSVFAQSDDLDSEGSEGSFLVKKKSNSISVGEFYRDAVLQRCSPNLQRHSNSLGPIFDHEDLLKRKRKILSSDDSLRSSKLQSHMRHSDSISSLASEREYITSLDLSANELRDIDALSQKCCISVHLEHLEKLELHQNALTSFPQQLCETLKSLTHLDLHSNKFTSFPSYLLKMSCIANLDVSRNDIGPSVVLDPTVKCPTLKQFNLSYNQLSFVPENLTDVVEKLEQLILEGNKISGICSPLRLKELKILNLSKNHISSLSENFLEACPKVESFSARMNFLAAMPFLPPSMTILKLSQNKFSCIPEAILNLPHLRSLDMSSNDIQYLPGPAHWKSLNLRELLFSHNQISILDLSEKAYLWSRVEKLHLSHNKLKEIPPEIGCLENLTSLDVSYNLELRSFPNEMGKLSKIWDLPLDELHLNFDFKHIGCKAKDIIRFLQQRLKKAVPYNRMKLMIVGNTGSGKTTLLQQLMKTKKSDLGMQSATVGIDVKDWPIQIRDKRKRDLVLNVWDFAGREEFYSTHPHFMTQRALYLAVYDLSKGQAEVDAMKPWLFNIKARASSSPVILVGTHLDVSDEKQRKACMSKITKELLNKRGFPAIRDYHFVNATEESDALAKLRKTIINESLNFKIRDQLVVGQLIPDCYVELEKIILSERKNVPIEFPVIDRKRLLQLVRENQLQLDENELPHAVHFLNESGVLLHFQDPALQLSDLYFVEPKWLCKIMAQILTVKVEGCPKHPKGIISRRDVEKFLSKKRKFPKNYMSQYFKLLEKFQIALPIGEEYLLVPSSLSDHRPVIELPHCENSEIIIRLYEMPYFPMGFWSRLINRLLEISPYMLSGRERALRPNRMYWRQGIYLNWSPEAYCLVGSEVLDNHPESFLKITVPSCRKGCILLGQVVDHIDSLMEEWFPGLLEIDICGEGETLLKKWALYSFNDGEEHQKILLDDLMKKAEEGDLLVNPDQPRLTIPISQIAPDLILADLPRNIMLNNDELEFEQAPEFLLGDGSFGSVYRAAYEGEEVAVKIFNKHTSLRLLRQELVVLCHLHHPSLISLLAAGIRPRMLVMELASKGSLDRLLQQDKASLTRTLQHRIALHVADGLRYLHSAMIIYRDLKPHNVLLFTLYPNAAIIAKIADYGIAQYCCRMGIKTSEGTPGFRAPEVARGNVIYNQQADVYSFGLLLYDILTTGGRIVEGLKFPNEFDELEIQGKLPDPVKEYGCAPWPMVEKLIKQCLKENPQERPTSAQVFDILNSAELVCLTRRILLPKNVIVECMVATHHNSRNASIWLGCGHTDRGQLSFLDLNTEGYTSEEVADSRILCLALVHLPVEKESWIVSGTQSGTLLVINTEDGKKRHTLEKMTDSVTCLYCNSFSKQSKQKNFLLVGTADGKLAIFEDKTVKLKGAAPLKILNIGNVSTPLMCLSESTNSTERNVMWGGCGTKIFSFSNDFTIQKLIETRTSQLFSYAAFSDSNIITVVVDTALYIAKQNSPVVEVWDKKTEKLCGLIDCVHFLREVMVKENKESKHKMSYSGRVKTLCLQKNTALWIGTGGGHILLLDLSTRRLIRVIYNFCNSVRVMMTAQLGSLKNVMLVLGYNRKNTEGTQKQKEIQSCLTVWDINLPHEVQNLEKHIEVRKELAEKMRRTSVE
Chain of Ribosomal protein S6 kinase alpha-2 (Homo sapiens) (Q15349 whole entry): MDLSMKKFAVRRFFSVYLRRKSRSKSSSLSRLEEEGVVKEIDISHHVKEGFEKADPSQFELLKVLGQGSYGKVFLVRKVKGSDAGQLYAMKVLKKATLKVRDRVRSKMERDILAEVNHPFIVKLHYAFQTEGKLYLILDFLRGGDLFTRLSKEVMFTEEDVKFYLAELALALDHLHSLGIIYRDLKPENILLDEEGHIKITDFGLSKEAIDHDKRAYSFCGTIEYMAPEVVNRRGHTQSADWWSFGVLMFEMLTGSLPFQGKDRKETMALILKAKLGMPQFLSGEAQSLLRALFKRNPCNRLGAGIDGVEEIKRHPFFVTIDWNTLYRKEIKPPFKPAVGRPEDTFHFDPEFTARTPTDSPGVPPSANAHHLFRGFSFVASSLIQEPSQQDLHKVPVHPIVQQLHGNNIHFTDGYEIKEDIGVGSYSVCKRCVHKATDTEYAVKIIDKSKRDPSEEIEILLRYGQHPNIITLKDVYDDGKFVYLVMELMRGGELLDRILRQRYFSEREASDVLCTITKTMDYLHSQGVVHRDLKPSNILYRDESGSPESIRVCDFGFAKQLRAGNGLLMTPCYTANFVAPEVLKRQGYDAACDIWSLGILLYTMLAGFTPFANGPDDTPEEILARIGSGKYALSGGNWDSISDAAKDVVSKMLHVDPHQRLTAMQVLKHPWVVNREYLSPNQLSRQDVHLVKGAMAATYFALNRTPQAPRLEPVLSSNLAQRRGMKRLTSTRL
Chain of Ribosomal protein S6 kinase alpha-3 (Homo sapiens) (P51812 whole entry): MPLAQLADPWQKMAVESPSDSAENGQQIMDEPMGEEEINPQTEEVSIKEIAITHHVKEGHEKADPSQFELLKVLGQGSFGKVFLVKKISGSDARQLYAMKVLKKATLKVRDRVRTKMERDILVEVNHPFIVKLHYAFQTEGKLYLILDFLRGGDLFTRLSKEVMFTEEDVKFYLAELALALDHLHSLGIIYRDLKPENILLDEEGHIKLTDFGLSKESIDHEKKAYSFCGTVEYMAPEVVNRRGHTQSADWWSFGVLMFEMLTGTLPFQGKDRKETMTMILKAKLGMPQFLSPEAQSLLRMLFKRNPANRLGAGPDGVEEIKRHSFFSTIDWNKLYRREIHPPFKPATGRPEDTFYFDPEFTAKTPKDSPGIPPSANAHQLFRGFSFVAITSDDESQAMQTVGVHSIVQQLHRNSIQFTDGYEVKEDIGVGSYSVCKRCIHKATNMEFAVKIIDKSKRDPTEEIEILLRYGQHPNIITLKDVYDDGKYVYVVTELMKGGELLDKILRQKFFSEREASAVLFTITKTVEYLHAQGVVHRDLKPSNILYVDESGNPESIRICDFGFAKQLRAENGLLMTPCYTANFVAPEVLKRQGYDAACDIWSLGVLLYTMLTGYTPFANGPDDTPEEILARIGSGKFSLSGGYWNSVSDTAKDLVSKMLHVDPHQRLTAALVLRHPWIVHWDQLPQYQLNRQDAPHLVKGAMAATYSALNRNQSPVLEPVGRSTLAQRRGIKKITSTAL
Chain of Ribosomal protein S6 kinase alpha-6 (Homo sapiens) (Q9UK32 whole entry): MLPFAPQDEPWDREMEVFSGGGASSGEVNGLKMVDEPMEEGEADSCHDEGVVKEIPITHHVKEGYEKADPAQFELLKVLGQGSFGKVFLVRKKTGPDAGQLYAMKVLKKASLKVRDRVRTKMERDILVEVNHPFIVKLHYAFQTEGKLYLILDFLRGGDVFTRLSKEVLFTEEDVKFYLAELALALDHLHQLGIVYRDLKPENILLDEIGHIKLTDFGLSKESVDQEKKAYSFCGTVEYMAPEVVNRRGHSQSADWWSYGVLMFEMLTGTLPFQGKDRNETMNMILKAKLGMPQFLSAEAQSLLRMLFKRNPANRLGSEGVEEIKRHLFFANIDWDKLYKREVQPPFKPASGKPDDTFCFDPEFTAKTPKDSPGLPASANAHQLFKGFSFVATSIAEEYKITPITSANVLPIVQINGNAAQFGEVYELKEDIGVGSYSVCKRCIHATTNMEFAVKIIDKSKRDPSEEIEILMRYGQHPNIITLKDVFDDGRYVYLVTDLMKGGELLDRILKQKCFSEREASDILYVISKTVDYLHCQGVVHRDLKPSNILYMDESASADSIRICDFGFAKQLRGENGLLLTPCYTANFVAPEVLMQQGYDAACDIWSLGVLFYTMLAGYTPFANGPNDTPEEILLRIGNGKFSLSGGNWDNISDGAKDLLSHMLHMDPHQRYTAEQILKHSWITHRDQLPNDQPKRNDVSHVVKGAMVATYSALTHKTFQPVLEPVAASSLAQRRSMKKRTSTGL
Chain of Aurora kinase B (Homo sapiens) (Q96GD4 whole entry): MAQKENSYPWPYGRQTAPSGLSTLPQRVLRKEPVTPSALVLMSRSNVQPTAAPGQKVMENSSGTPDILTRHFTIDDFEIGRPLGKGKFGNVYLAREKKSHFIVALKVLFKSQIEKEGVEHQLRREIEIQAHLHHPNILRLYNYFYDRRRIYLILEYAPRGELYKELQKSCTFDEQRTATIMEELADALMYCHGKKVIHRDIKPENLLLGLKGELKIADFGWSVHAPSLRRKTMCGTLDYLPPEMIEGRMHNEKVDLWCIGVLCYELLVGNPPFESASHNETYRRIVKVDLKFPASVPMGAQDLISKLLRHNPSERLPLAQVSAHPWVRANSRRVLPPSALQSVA

CNc1nc(Nc2cnn(CC(C)(C)O)c2Cl)ncc1C(F)(F)F
bioavailability [1]: 5% | Ratio Ki (Homo sapiens): > 150

CNc1nc(Nc2cn(C(C)(C)C#N)nc2C)ncc1C(F)(F)F [DNL-201]
Drug metabolism (Liver microsome): Not Active | bioavailability [2]: 35% | CL free (Cynomolgus monkey): 100 mL/min/kg | half-life [3]: 2.2 h | clearance [4]: 19.7 mL/min/kg | fraction unbound at 4 h, 5 µM [5]: 0.197 | pIC50 (Mus musculus): 8.52 | inhibition (Mus musculus): Dose-dependent effect | Activity (Cytochrome P450 2B6): Active | Activity (Cytochrome P450 1A2 [6]): Active | Activity (Cytochrome P450 3A4): Active | pIC50 (Cytochrome P450 1A2 [7]): 6.15 | Kp uu [8]: 0.6 | bioavailability [9]: 88% | inhibition [10]: 68% | inhibition [11]: 52% | inhibition [12]: 62% | inhibition [13]: 51% | Drug metabolism (Hepatocyte): Not Active | clearance [14]: 44 mL/min/kg | CL free (Rattus norvegicus): 210 mL/min/kg | CLhep predicted at 1 µM [15]: 25 mL/min/kg | CLhep predicted at 1 µM [16]: 3 mL/min/kg | pKi [17]: 6.82 | pIC50 [18]: 8.52 | pKi [19]: 9.15 | solubility thermodynamic [20]: 100 µg/mL (≈ 295 µM)
